Data set [1] addresses T1, acid sphingomyelinase (ASM) (Homo sapiens, UniProt P17405).
T1 construct: 1.3 nM purified human full-length ASM enzyme (purified in house); made in house
T1 sequence (P17405 47-631): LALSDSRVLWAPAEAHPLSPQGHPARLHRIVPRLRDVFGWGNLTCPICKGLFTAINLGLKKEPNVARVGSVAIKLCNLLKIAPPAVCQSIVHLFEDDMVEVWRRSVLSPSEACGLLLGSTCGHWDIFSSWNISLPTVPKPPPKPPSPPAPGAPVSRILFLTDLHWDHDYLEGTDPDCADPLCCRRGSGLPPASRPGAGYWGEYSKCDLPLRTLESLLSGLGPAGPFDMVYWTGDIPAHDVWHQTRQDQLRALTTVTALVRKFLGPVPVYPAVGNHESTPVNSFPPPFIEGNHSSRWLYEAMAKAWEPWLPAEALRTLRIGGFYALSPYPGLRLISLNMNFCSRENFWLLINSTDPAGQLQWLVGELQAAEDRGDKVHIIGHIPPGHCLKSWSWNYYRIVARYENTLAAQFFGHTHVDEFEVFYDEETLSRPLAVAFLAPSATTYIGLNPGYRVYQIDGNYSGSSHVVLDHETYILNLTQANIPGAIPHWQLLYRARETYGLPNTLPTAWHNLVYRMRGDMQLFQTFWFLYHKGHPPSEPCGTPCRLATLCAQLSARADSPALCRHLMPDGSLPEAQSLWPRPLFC
Kind of data set: In vitro hASM assay. It is filed as biochemical. Particulars: 1 and 10 μM. As for the experimental part: hASM activity measurement was conducted using the fluorogenic substrate 6-hexadecanoylamino-4-methylumbelliferylphosphorylcholine (HMU-PC, Toronto Research Chemicals) at 0.5 μM and 1.3 nM purified human full-length ASM enzyme (purified in house) in a buffer containing 50 mM citrate, 150 mM NaCl, 5 mM ZnCl2, and 0.43 mM Triton X-100 at pH 4.7 in a final volume of 50 μL. The reaction mixtures were incubated for 45 min at rt and stopped by the addition of 150 μL of 1 M glycine at pH 12.5. The formation of the fluorescent product was monitored by a plate reader at excitation/emission wavelengths of 385/450 nm. The average hASM activity was calculated from two independent experiments, each performed in two technical replicates.

Data set [2] in a line: In vitro plasma stability study. It is filed as in vitro ADME. The settings on record: mouse plasma; read-out: m-plasma t1/2. Summed up: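 Compound at 2 μM final incubated in mouse plasma at 37 °C for up to 120 min, sampled at 0–120 min and quenched in cold MeCN with internal standard. Remaining compound quantified by LC/MS/MS; t1/2 fitted from response vs time; mean of ≥2 experiments.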

Another data set concerns the target T2, AC (Homo sapiens, UniProt Q13510).
T2 sequence (Q13510 22-395): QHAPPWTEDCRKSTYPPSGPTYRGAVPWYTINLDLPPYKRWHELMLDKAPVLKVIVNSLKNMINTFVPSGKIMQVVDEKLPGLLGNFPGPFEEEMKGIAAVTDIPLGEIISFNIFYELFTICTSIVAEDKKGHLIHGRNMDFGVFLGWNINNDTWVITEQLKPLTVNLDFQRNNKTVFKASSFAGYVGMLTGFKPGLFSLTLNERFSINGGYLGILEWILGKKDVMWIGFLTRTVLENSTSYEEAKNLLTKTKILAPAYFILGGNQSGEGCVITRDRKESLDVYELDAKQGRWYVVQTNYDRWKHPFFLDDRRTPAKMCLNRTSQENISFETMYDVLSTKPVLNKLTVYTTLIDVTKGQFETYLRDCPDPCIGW
Briefly: EC50 determination in primary fibroblast cells from Krabbe's disease patients. Also noted: expressed in transfected cells. Format: cell-based. As for the experimental part:
Cells were plated in a 6-well plate. After 24 h, cells were treated with 22m at different concentrations for 2 h. Next, cells were washed with PBS, and cell pellets were washed, collected, and stored at −80 °C. Finally, cell pellets were lysed, and hAC activity in cell lysates was analyzed using the same biochemical fluorogenic assay as described for compound IC50 determination. Using this methodology, EC50 was determined to be 0.41 ± 0.1 μM. The EC50 value is a mean of two independent experiments, each performed in two technical replicates.

Structures are written as SMILES. Where only a bound is given, the exact number is not on record here.

A word on the EC50: it is the concentration giving half of the maximal effect.

Consider `CC(C)CNC(=O)n1c(=O)oc2cc(C3CCN(C)CC3)ccc21` [22m, N-Isobutyl-6-(1-methyl-4-piperidyl)-2-oxo-1,3-benzoxazole-3-carboxamide], for which the “effect on activity of ASM” value in data set [1] is “no effect”. In data set [2], the half-life at 2 µM was 1.33 h and the half-life at 2 μM is over 1 h. Besides, the half-maximal effective concentration (EC50) on AC (primary fibroblast cells from Krabbe's disease patients, 2 h incubation) was 410 ± 100 nM. For the same molecule, the midpoint of the response at AC (primary fibroblast cells of Krabbe's patients, Figure S1), the EC50, lay at 400 ± 100 nM.

The values above are taken from publication PMC7997574, “Lead Optimization of Benzoxazolone Carboxamides as Orally Bioavailable and CNS Penetrant Acid Ceramidase Inhibitors” (Journal of Medicinal Chemistry, 2020).
